Measurements reported in ChEMBL document CHEMBL1147316, “Turbinaric acid, a cytotoxic secosqualene carboxylic acid from the brown alga Turbinaria ornata” (J Nat Prod, 1989).
The source made the active and inactive calls. No cut-off for these calls is given here.

Key:
[1] = test system: Melanoma tumor cell line; assay: Cytotoxicity against mouse melanoma cells at 26.6 ug/mL; format: functional, cell-based
[2] = test system: Cancer cell lines; assay: Cytotoxicity against human colon cancer cells at 12.5 ug/mL; format: functional, cell-based

**Q.** Which results are given for `CC(C)=CCC/C(C)=C/CC/C(C)=C/CC/C=C(\C)CC/C=C(\C)CCC(=O)O`?
**A.** Activity [1]: Active; Activity [2]: Active
